Values quoted from earlier work, collected in patent US9730930B2, “Treatment for vitiligo” (Rigel Pharmaceuticals, Inc., priority 2012, dated 2017).

Test system: other cytokine (IL-1β and TNFα) signaling

SMILES: C#CCOc1ccc(Nc2nc(Nc3ccc(C)c(S(N)(=O)=O)c3)ncc2F)cc1 [Compound I, N2-(3-aminosulfonyl-4-methylphenyl)-5-fluoro-N4-[4-(prop-2-ynyloxy)phenyl]-2,4-pyrimidinediamine]
- activity on other cytokine (IL-1β and TNFα) signaling: little or no activity
